Literature values as cited in patent US20040071685A1, “Compositions and methods for increasing the bioavailability of plant polyphenols” (priority 2002, published 2004).

How the values were obtained:
[1] = rats, oral, 700 μM/kg body weight
[2] = adults
[3] = test system: alpha-glucosidase (invertase)
[4] = rats, 15 μM administered in the stomach in situ, after 30 minutes

For `O=C(O)/C=C/c1ccc(O)c(O)c1` [caffeic acid], which “maximum serum level of conjugates” value [1] is on record?
Its value is 0.64 µM.

And the “time of maximum serum levels” value [1]?
Its value is 2 h.

With `O=c1c(-c2ccc(O)cc2)coc2cc(O)ccc12` [daidzein] as the molecule, how does the volume of distribution [2] read?
The volume of distribution was “large”.

Which volume of distribution [2] does the source give for `O=c1c(-c2ccc(O)cc2)coc2cc(O)cc(O)c12` [genistein] here?
Its volume of distribution is “large”.

What about the type of inhibition [3] of the same molecule?
Its type of inhibition is “reversible, slow-binding, non-competitive inhibitor”.

With `O=c1c(O[C@@H]2O[C@H](CO)[C@@H](O)[C@H](O)[C@H]2O)c(-c2ccc(O)c(O)c2)oc2cc(O)cc(O)c12` [isoquercitrin] as the molecule, how does the “amount remaining in the stomach” value [4] read?
Its value is 15 µM.

With `O=c1c(O)c(-c2ccc(O)c(O)c2)oc2cc(O)cc(O)c12` [quercetin] as the molecule, how does the “amount found in the bile samples” value [4] read?
Its value is 4.1 µM.

What about the “amount remaining in the stomach” value [4] of the same molecule?
Its value is 8.6 µM.

For `C[C@@H]1O[C@@H](OC[C@H]2O[C@@H](Oc3c(-c4ccc(O)c(O)c4)oc4cc(O)cc(O)c4c3=O)[C@H](O)[C@@H](O)[C@@H]2O)[C@H](O)[C@H](O)[C@H]1O` [rutin], which “amount remaining in the stomach” value [4] is on record?
The value was 15 µM.
